Data reported in US9765101B2, “Organo-arsenoxide compounds and use thereof” (NewSouth Innovations Pty Limited, priority 2006, dated 2017).
Entries after “also recorded” stand apart in the source; their conditions may differ.

Tests used:
[1] = tested on: BAE cells; assay: BAE proliferation with glutathione depletion by BSO; format: cell-based, bovine; details: BAE cells co-treated with BSO, 72 h
Method: FIG. 12. Depletion of cellular glutathione increases (S)-Penicillamine-arsenoxide anti-proliferative activity. BAE cells were co-treated with (S)-Penicillamine-arsenoxide and the indicated concentrations of BSO for 72 h and the IC50 for proliferation arrest was calculated.
Treatment of BAE cells with glutathione reduced GSAO inhibition of BAE cell proliferation, while blocking de novo synthesis of glutathione with buthionine sulfoximine (BSO), an inhibitor of the γ-glutamyl cysteine synthase, enhanced the proliferation arrest by almost 100-fold (Dilda et al., 2005b).

[2] = tested on: MDCK2 cells (kidney epithelial); assay: MDCK2 cell proliferation assay (MTT, 72 h); format: cell-based, dog
Method: (§1) BAE cells were from Cell Applications, San Diego, Calif. and BxPC-3, HT1080, LLC, PANC-1, MCF-7, HCT116 and K562 cells were from ATCC, Bethesda, Md. NB4 and MDCK2 cells were from Shane Supple (Kanematsu Laboratories, Royal Prince Alfred Hospital, Sydney, Australia) and P. Borst (The Netherlands Cancer Institute, Amsterdam, The Netherlands). BAE, HT1080, Panc-1, MCF-7, HCT116, MDCK2 and LLC cells were cultured in DMEM. NB4, K562 and BxPC-3 cells were cultured in RPMI medium. The cells were supplemented with 10% foetal calf serum (FBS), 2 mM L-glutamine, and 1 U·mL-1 penicillin/streptomycin. Cell culture plasticware was from Techno Plastic Products (Trasadingen, Switzerland). All other cell culture reagents were from Gibco (Gaithersburg, Md.).
(§2) Adherent cells were allowed to adhere overnight.

[3] = tested on: K562 cells (chronic myelogenous leukaemia); assay: K562 cell proliferation assay (MTT, 72 h); format: cell-based; details: K562, human chronic myelogenous leukaemia; read-out: IC50 for proliferation arrest
Method: as §1, §2

[4] = tested on: BAE cells; assay: Accumulation of arsenical in BAE cells (cytosolic arsenic by inductively coupled plasma spectrometry); format: cell-based, bovine; details: 50 μM
Method: BAE cells were seeded at a density of 1.5×10^6 cells in Petri dishes and allowed to adhere overnight. Cells were incubated with 50 μM (S)-Penicillamine-arsenoxide at discrete times for up to 2 h at 37° C. and then washed three times with ice-cold PBS. The washed cells were lysed in 1 mL of 70% w/w nitric acid. Petri dishes were then washed twice with 1 mL of PBS and kept at 4° C. until use. Samples were diluted 10-fold and analysed for arsenic atoms using an Elan 6100 Inductively Coupled Plasma Spectrometer (Perkin Elmer Sciex Instruments, Shelton, Conn.).

[5] = tested on: NB4 cells (acute promyelocytic leukaemia); assay: NB4 cell proliferation assay (MTT, 72 h); format: cell-based, human
Method: as §1, §2

[6] = tested on: isolated rat liver mitochondria; assay: Mitochondrial swelling assay (mitochondrial permeability transition); format: biochemical; details: 100 μM
Method: Mitochondria were isolated from the livers of ˜250 g male Wistar rats using differential centrifugation as previously described (Dilda et al., 2005a; Don et al., 2003). The final mitochondrial pellet was resuspended in 3 mM HEPES-KOH, pH 7.0 buffer containing 213 mM mannitol, 71 mM sucrose and 10 mM sodium succinate at a concentration of 30 mg of protein per mL. Mitochondrial permeability transition induction was assessed spectrophotometrically by suspending the liver mitochondria at 0.5 mg of protein per mL at 25° C. in 3 mM HEPES-KOH, pH 7.0 buffer containing 75 mM mannitol, 250 mM sucrose, 10 mM sodium succinate, and 2 μM rotenone. Swelling was measured by monitoring the associated decrease in light scattering at 520 nm using a SpectraMax Plus microplate reader (Molecular Devices, Palo Alto, Calif.).

[7] = tested on: BAE cells; assay: BAE cell viability / cytotoxicity (propidium iodide flow cytometry); format: cell-based, bovine; details: read-out: IC50 for loss of viability
From the text: as §2

[8] = tested on: MDCKII cells over-expressing MRP3; details: MD/MRP3; 96 h; relative to IC50 of non-transfected parental cells
Method: (§3) Transfectants of the Madin-Darby canine kidney II (MDCKII) polarised epithelial cell line, over-expressing multidrug resistance-associated proteins (MRP) 1, 2 or 3, have been described (Evers et al., 2000; Kool et al., 1999), as have the MEF/MDR1 clone H4 over-expressing human MDR1 or BCRP (Dilda et al., 2005b). Cells were grown and maintained as adherent monolayers in DMEM containing 10% calf serum (Cosmic™, Hyclone, Tauranga, New Zealand), 100 μg·mL^−1 penicillin and 60 μg·mL^−1 streptomycin. Cytotoxicity assays were performed as described previously (Allen et al., 1999).
(§4) Mammalian cells over-expressing MRP1, 2, 3 or 6, or MDR1 or BCRP were tested for resistance to (S)-Penicillamine-arsenoxide. MRP1, MRP2 or MRP3 was over-expressed in the canine kidney epithelial MDCKII cell line, while MRP6, MDR1 or BCRP was over-expressed in the murine embryo fibroblast MEF3.8 line. Cells were exposed to the indicated concentrations of (S)-Penicillamine-arsenoxide for 96 h and the number of viable cells measured and expressed relative to the number of untreated cells. Resistance factor is calculated relative to the (S)-Penicillamine arsenoxide IC50 for proliferation arrest of non-transfected parental cells.

[9] = tested on: MDCKII cells over-expressing MRP1; details: MD/MRP1; 96 h; relative to IC50 of non-transfected parental cells
Method: as §3, §4

[10] = tested on: HT1080 cells (fibrosarcoma); assay: HT1080 cell proliferation assay (MTT, 72 h); format: cell-based; details: HT1080, human fibrosarcoma; read-out: IC50 for proliferation arrest
Method: as §1, §2

[11] = tested on: human BxPC-3 pancreatic carcinoma tumours; assay: Primary tumor growth assay, BxPC-3 tumours in BalbC nude mice; format: in vivo, mouse; details: for tumour doubling time: subcutaneous micro-osmotic pump, 28 day
Method: Female 7 to 9 week old Balb C nude mice were used (UNSW Biological Resource Centre). Mice were held in groups of 3 to 5 at a 12 h day and night cycle and were given animal chow and water ad libidum. A suspension of 2×10^6 BxPC-3 cells in 0.2 mL of PBS was injected subcutaneously in the proximal midline. Tumors were allowed to establish and grow to a size of ˜50 mm^3 after which they were randomized into four groups. Tumor volume was calculated using the relationship length×height×width×0.523. Tumor doubling time (TD) was calculated from the tumor growth rate curve during exponential growth using the formula […], where VF is final tumor volume and VI is initial tumor volume (Wolff et al., 2004). Animals were implanted with 28 day alzet model 1004 micro-osmotic pumps (ALZA Corporation, Palo Alto, Calif.) subcutaneously in the flank. The pumps delivery 0.25, 0.5 or 1 mg/kg/day (S)-Penicillamine arsenoxide in 100 mM glycine. Tumor volume and animal weight was measured every 2 or 3 days.
BalbC nude mice bearing subcutaneous human BxPC-3 pancreatic carcinoma tumours in the proximal midline were implanted with 28 day micro-osmotic alzet pumps subcutaneously in the flank. The pumps delivered 0.25, 0.5 or 1 mg per kg per day (S)-Penicillamine arsenoxide. […] The tumour doubling times are 9.2, 8.3, 13.9 and 16.2 days for groups treated with vehicle (100 mM glycine) or 0.25, 0.5 and 1 mg/kg/day (S)-Penicillamine arsenoxide, respectively.

## CC(C)(SCC(=O)Nc1ccc([As](O)O)cc1)[C@@H](N)C(=O)O [(S)-Penicillamine-arsenoxide, 4-(N—(S-penicillaminylacetyl)amino)phenylarsinous acid]
[1]
  enhancement of IC50 for proliferation arrest by BSO: approximately 25 fold
[2]; BAE vs MDCK2
  sensitivity of BAE cells relative to kidney epithelial cells: 5.6 fold
[2]; MDCK2, dog kidney epithelial, read-out: IC50 for proliferation arrest
  IC50: 2400 nM
[3]
  IC50: 1400 nM
[4]
  initial rate of accumulation: 69 pmol per 10^6 cells per min
[5]; NB4, human acute promyelocytic leukaemia, read-out: IC50 for proliferation arrest
  IC50: 700 nM
[5]; NB4 cells, 72 h
  effects on APL cells compared to arsenic trioxide: equivalent to arsenic trioxide; also recorded: as good an inhibitor of APL cell proliferation as arsenic trioxide
[6]
  time for half-maximal swelling of isolated mitochondria, times faster compared to GSAO: approximately 4 times
[7]
  IC50: 3500 nM
[8]
  Resistance Factor: 0.8
[9]
  Resistance Factor: 3.7
[10]
  IC50: 4000 nM
[11]; 0.25 mg/kg/day
  tumour doubling time: 8.3 days
[11]; 0.5 mg/kg/day
  tumour doubling time: 13.9 days
[11]; 1 mg/kg/day
  tumour doubling time: 16.2 days
[11]; 0.25, 0.5 or 1 mg per kg per day
  growth of the BxPC-3 tumours: significantly inhibited
[11]; highest dose animals
  accumulation of connective tissue, mice affected: 1 mouse
  skin necrosis at the delivery site, mice affected: 3 of the 10
[11]; highest dose animals (1 mg/kg/day)
  skin toxicity at pump delivery site: some skin toxicity at the pump delivery site
[11]; lower doses
  findings at delivery site at the lower doses: some evidence of accumulation of connective tissue at the delivery site in the occasional mouse
[11]; not shown
  animal weight versus vehicle: no change in the weight
